The record followed here is patent US11542273B2, “Amide compound having bet proteolysis-inducing action and medicinal application thereof” (MITSUBISHI TANABE PHARMA CORPORATION, priority 2018, dated 2023).

Data set [1] has as its target BRD4 protein (Homo sapiens (Human), UniProt O60885). Kind of data set: BRD4 protein degradation inducing action in cancer cells (immunofluorescence, Operetta). It counts as cell-based. The settings on record: LNCaP cells, 6 hr treatment, fluorescence intensity. Put shortly: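 DC50 = compound concentration reducing BRD4 immunofluorescence to 50% of untreated cells, interpolated between the two flanking concentrations. Treatment: LNCaP cells, 6 hr, 10% FBS/RPMI1640, 37° C. Cells were then fixed, permeabilized, stained with anti-BRD4 and Alexa Fluor 488 or 546 secondaries, and imaged.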

Data set [2] deals with BRD4 bromodomain 1 (Homo sapiens (Human), UniProt O60885). In words: Inhibitory action on binding of BRD4 protein and ligand, Test Method 1 (TR-FRET, BRD4 bromodomain 1 TR-FRET Assay Kit). The following applies: Test Method 1, BRD4 bromodomain 1 and ligand. The protocol: The inhibitory action of the compound of the present invention on the binding of BRD4 protein and a ligand thereof was evaluated by the time-resolved fluorescence resonance energy transfer (TR-FRET) method using BRD4 bromodomain 1 TR-FRET Assay Kit (Cayman). In this experiment, (+)-JQ1 known to have an inhibitory activity on the binding of BRD4 protein and a ligand therefor was used as a positive control drug. A test compound dissolved in DMSO was diluted with TR-FRET Assay Buffer, added to a 384 well black plate, BRD4 bromodomain 1 Europium Chelete was further added and the cells were incubated at room temperature for 15 min. Thereafter, BRD4 bromodomain 1 Ligand/APC Acceptor Mixture was added and the cells were incubated at room temperature for 1 hr. The binding amount of the BRD4 protein and ligand was measured as fluorescence intensity (excitation: 340 nm/emission: 620 nm and excitation: 340 nm/emission: 670 nm).
It was calculated from the straight line connecting the degradation rate at two points enclosing the 50% fluorescence intensity and the compound concentration.
On the technique in general: In TR-FRET formats the signal depends on donor and acceptor labels being close together.

Data set [3] concerns human ovarian cancer A2780 cell. Kind of data set: Cytotoxic action on cancer cells (WST-8, 96 hr). The following applies: 96 hr culture. The format is cell-based. Put shortly:
(§1)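 10% FBS/RPMI1640; overnight plating, 37° C/5% CO2; compound from DMSO diluted in medium; WST-8 viable count vs no-compound control; IC50 by two-point linear interpolation around 50% survival.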
For orientation: Formazan colour is commonly taken as a measure of viable cells.

In data set [4] the test system is human breast cancer ZR-75-1 cell. Kind of data set: Cytotoxic action on cancer cells (WST-8, 96 hr). The following applies: ZR-75-1 cells, 96 hr culture. It counts as cell-based. The procedure, abridged:
as §1

The subject of data set [5] is human T-cell leukemia Jurkat cells. Kind of data set: Cytotoxic action on cancer cells (WST-8, 96 hr). The format is cell-based. The following applies: 96 hr culture. The procedure, abridged: as §1
Data set [6] concerns human glioma U-87 MG cell. In words: Cytotoxic action on cancer cells (WST-8, 96 hr). The format is cell-based. The following applies: U-87 MG cells, 96 hr culture. Put shortly:
as §1

The test system of data set [7] is human triple negative breast cancer MDA-MB-231 cell. Kind of data set: Cytotoxic action on cancer cells (WST-8, 96 hr). It counts as cell-based. The following applies: MDA-MB-231 cells, 96 hr culture. Put shortly: as §1
In data set [8] the test system is human gastric cancer SNU-16 cell. In words: Cytotoxic action on cancer cells (WST-8, 96 hr). The format is cell-based. The following applies: SNU-16 cells, 96 hr culture. Put shortly:
as §1

The test system of data set [9] is human uterine sarcoma MES-SA cell. In words: Cytotoxic action on cancer cells (WST-8, 96 hr). It counts as cell-based. The following applies: 96 hr culture. Put shortly:
as §1

The test system of data set [10] is human prostate cancer LNCaP cells. In words: Cytotoxic action on cancer cells (WST-8, 96 hr). The following applies: read-out: LNCaP cytotoxic activity: IC50. The format is cell-based. The procedure, abridged:
as §1

For data set [11], the system named is human chronic myeloid leukemia K562 cell. In words: Cytotoxic action on cancer cells (WST-8, 96 hr). It counts as cell-based. The settings on record: 96 hr culture. Put shortly: as §1
For data set [12], the system named is human multiple myeloma MM.1S cell. Kind of data set: Cytotoxic action on cancer cells (WST-8, 96 hr). It counts as cell-based. The settings on record: MM1.S, MM.1S cells, 96 hr culture. The procedure, abridged:
as §1

Data set [13] concerns human castration-resistant prostate cancer PC-3 cell. In words: Cytotoxic action on cancer cells (WST-8, 96 hr). The format is cell-based. The settings on record: PC-3 cells (printed P0-3 in table), 96 hr culture. The procedure, abridged: as §1
Data set [14] concerns human large cell lung cancer NCI-H460 cell. Kind of data set: Cytotoxic action on cancer cells (WST-8, 96 hr). It counts as cell-based. The following applies: 96 hr culture. Put shortly:
as §1

The test system of data set [15] is human colorectal cancer HCT116 cell. Kind of data set: Cytotoxic action on cancer cells (WST-8, 96 hr). The settings on record: HCT-116, 96 hr culture. It counts as cell-based. Put shortly:
as §1

Data set [16] has as its system human pancreatic cancer AsPC-1 cell. In words: Cytotoxic action on cancer cells (WST-8, 96 hr). It counts as cell-based. The settings on record: ASPC1, AsPC-1 cells, 96 hr culture. The procedure, abridged:
as §1

In data set [17] the test system is human diffuse large B-cell lymphoma SU-DHL-6 cell. In words: Cytotoxic action on cancer cells (WST-8, 96 hr). The format is cell-based. The settings on record: SU-DHL-6 cells, 96 hr culture. The procedure, abridged: as §1
Data set [18] has as its system human bladder cancer 5637 cell. In words: Cytotoxic action on cancer cells (WST-8, 96 hr). The following applies: 5637 cells, 96 hr culture. The format is cell-based. Put shortly: as §1
Data set [19] deals with human Burkitt lymphoma Raji cell. Kind of data set: Cytotoxic action on cancer cells (WST-8, 96 hr). The settings on record: 96 hr culture. It counts as cell-based. Put shortly: as §1
The subject of data set [20] is human acute myeloid leukemia MV-4-11 cell. Kind of data set: Cytotoxic action on cancer cells (WST-8, 96 hr). The format is cell-based. The settings on record: MV4-11, MV-4-11 cells, 96 hr culture. The procedure, abridged:
as §1

Data set [21] deals with human liver cancer Hep G2 cell. Kind of data set: Cytotoxic action on cancer cells (WST-8, 96 hr). The settings on record: HepG2, 96 hr culture. It counts as cell-based. Put shortly:
as §1

The subject of data set [22] is human small cell lung cancer NCI-H82 cell. Kind of data set: Cytotoxic action on cancer cells (WST-8, 96 hr). The format is cell-based. The following applies: 96 hr culture. The procedure, abridged: as §1
For data set [23], the system named is human non-small cell lung cancer NCI-H1975 cell. Kind of data set: Cytotoxic action on cancer cells (WST-8, 96 hr). The following applies: 96 hr culture. It counts as cell-based. Put shortly: as §1
The target of data set [24] is BRD4-1 (GST) (Homo sapiens (Human), UniProt O60885). In words: Inhibitory action on binding of BRD4 protein and acetylated histone H4, Test Method 2 (TR-FRET). The settings on record: Test Method 2, BRD4-1 (GST) and acetylated histone H4, TR-FRET. The protocol:
The inhibitory action of the compound of the present invention on the binding of BRD4 protein and a ligand thereof (acetylated histone H4) was evaluated by the time-resolved fluorescence resonance energy transfer (TR-FRET) method using EPIgeneous™ Binding Domain Kit A (Cisbio), BRD4-1 (GST) (Reaction Biology Corp) and [Lys(Ac)5/8/12/16]-Histone H4(1-21)-GGK (Biotin) (Eurogentec). In this experiment, (+)-JQ1 known to have an inhibitory activity on the binding of BRD4 protein and acetylated histone H4 therefor was used as a positive control drug. A test compound dissolved DMSO was diluted with attached Diluent Buffer, added to a 384 well white plate, and BRD4-1 (GST) and [Lys(Ac)5/8/12/16]-Histone H4(1-21)-GGK (Biotin) were further added. Thereafter, Streptavidin-d2 conjugate and Anti-GST-Eu^3+ Cryptate Conjugate were added and the cells were incubated at room temperature for 3 hr. The binding amount of the BRD4 protein and acetylated histone H4 was measured as the fluorescence intensity (excitation: 314 nm/emission: 620 nm and excitation: 314 nm/emission: 665 nm). […] It was calculated from the straight line connecting the degradation rate at two points enclosing the 50% fluorescence intensity and the compound concentration.

Like-named read-outs stand apart in the source and are kept apart here.

For orientation: DC50 means the midpoint of the concentration-degradation curve. The low end stands for degradation at low concentration, the high end for degradation only at high concentration. Usually IC50 stands for the concentration that inhibits the measured activity by half. In data set [1], `COC(=O)C[C@@H]1N=C(c2ccc(-c3ccc(OCCOCC(=O)N[C@H](C(=O)N4C[C@H](O)C[C@H]4C(=O)N[C@@H](C)c4ccc(-c5scnc5C)cc4)C(C)(C)C)c(C#N)c3)cc2)c2c(sc(C)c2C)-n2c(C)nnc21` [Example 8, methyl [(6S)-4-(3′-cyano-4′-{2-[2-({(2S)-1-[(2S,4R)-4-hydroxy-2-({(1S)-1-[4-(4-methyl-1,3-thiazol-5-yl)phenyl]ethyl}carbamoyl)pyrrolidin-1-yl]-3,3-dimethyl-1-oxobutan-2-yl}amino)-2-oxoethoxy]ethoxy}[1,1′-biphenyl]-4-yl)-2,3,9-trimethyl-6H-thieno[3,2-f][1,2,4]triazolo[4,3-a][1,4]diazepin-6-yl]acetate] gave a 50% degradation concentration (DC50) of 0.41 nM. The IC50 in [2] was 82 nM; in [3], 0.36 nM; in [4], 4.2 nM; in [5] it was 4.3 nM; in data set [6] it was 25 nM; in [7], 14 nM. Moreover, the IC50 is 17 nM in data set [8]; 21 nM in data set [9]; 0.68 nM in [10] (Homo sapiens, LNCaP, 96 h); 5.2 nM in data set [11]; 0.24 nM in [12]; 2.5 nM in data set [13]. Besides, the IC50 in data set [14] turned out to be 75 nM; in data set [15], 37 nM; in [16] it was 81 nM; in data set [17], 2.1 nM; in data set [18], 2.1 nM; in data set [19], 5.7 nM. Besides, the IC50 came out at 0.15 nM in [20], 48 nM in [21], 35 nM in data set [22] and 20 nM in data set [23].
For the compound (+)-JQ1 [reference compound], the 50% inhibitory concentration (IC50) worked out at 7400 nM in data set [2]; 19000 nM in [10] (LNCaP cells, 96 hr culture, WST-8); 550 nM in [24].
